Reference: the OligoGym collection
These antisense oligonucleotides have a phosphorothioate backbone; sugars and methylation of C are not fully specified.

biological target: PRKACA; settings: ASO
Further: test concentration or dose not given here.

Compared with CGCTGCTGGGAGGAAAGACT, CGGCGGCGGCGTTGCCCATC is lower in remaining target (mRNA or protein) (fraction of control): 0.48 for the first, 0.21 for the second.

Going from CGGCGTTGCCCATCGCGGCG to CTTCCTCATAGTCGTCAAAG, the remaining target (mRNA or protein) (fraction of control) rises from 0.47 to 0.68.

First: CTTCTGTTTGTCGAGGATCT
Second: GAACATCTCCCCGCCGGGCA
The remaining target (mRNA or protein) (fraction of control) of the first is lower: 0.49 for the first, 0.87 for the second.

First: GCGGCCCTTCACGCGCTTGG
Second: GCGGCGGCGTTGCCCATCGC
The remaining target (mRNA or protein) (fraction of control) of the first is higher: no less than 1 for the first, 0.33 for the second.

First: GCGGCGGGTGCTGGCTGCGG
Second: GCGTTGCCCATCGCGGCGGC
The remaining target (mRNA or protein) (fraction of control) of the first is higher: 0.85 for the first, 0.36 for the second.

First: GCTTCTCTTTAAAATGGATT
Second: GCTTGCAGGATGCGCTTTTC
The remaining target (mRNA or protein) (fraction of control) of the first is higher: 0.84 for the first, 0.34 for the second.

Going from GGAGCAGCTGGTGTTTCTGT to GGCATGCCCCTAAAACTCAG, the remaining target (mRNA or protein) (fraction of control) falls from 0.61 to 0.55.

Compared with GGCGGCGGCGGCGTTGCCCA, GGCGGCGTTGCCCATCGCGG is lower in remaining target (mRNA or protein) (fraction of control): 0.51 for the first, 0.31 for the second.

First: GTTGCCCATCGCGGCGGCGG
Second: GTTGTCCTTGAAGGAGAACT
The remaining target (mRNA or protein) (fraction of control) of the first is lower: 0.53 for the first, no less than 1 for the second.

First: TAGATGAGATCCAGCGAGTG
Second: TAGTTTTCAAATATGTTTAC
The remaining target (mRNA or protein) (fraction of control) of the first is lower: 0.72 for the first, no less than 1 for the second.

First: TCCTTCAAGTCAGAGCTGAA
Second: TCGCGGCGGCGGCGGCCGGG
The remaining target (mRNA or protein) (fraction of control) of the first is lower: 0.56 for the first, 0.81 for the second.

Compared with TCTGCGAAGAAGGGCGGGTA, TGCAGGGATGCCCTCCCCAC is lower in remaining target (mRNA or protein) (fraction of control): no less than 1 for the first, 0.35 for the second.

Going from TGCCCATCGCGGCGGCGGCG to TGGCTCCCCAGCGGCTCCCC, the remaining target (mRNA or protein) (fraction of control) falls from 0.71 to 0.64.

Compared with TGGCTGCGGCCGGCGGCCCG, TTGGCGCTTCGTTCATTTGC is higher in remaining target (mRNA or protein) (fraction of control): 0.51 for the first, 0.61 for the second.

biological target: PTPN11; settings: ASO

In the case of TTTAGACTTGCCGTCATTGC, the remaining target (mRNA or protein) (fraction of control) is reported as 0.32.

biological target: CHUK; settings: ASO

AAATATACACTTTGGATC and AAGTCTCCCCATCTTGAG cannot be ordered by remaining target (mRNA or protein) (fraction of control): no less than 1 for the first, no less than 1 for the second.

First: AATTTACACAATCAGATA
Second: ACAGACAGACGTTCCCGA
The remaining target (mRNA or protein) (fraction of control) of the first is higher: no less than 1 for the first, 0.85 for the second.

First: ACATTGCTGCCCTTTGTC
Second: AGAACACATTGAGAGGCT
The remaining target (mRNA or protein) (fraction of control) of the first is lower: 0.54 for the first, 0.8 for the second.

First: AGCAATACATTCAAATAC
Second: AGGATGTGTACTATCTTC
The remaining target (mRNA or protein) (fraction of control) of the first is higher: no less than 1 for the first, 0.79 for the second.

AGTATCTGGCTTTCTTTA and ATACAGTTTTACTTTTAT cannot be ordered by remaining target (mRNA or protein) (fraction of control): no less than 1 for the first, no less than 1 for the second.

Going from ATCTTGGCTGCTTCAAAG to ATTGGCATGGTTCAACTT, the remaining target (mRNA or protein) (fraction of control) rises from 0.6 to 0.69.

Compared with CAAGAGAGCGGGCAGAAC, CATAGTGGATGGCCTTTT is lower in remaining target (mRNA or protein) (fraction of control): no less than 1 for the first, 0.66 for the second.

Going from CCCTGCATGAACATGACA to CTACTAAACCGAACTTCT, the remaining target (mRNA or protein) (fraction of control) rises from 0.47 to no less than 1.

Going from CTCTCCAAGTCAAGCTGA to CTGAGATCAAAGTGTTCT, the remaining target (mRNA or protein) (fraction of control) rises from 0.49 to no less than 1.

First: CTGAGGGTCCCAATTCAA
Second: CTTAATTGCTATTTTGAG
The remaining target (mRNA or protein) (fraction of control) of the first is lower: 0.88 for the first, no less than 1 for the second.

CTTAGCTCTAGGCGACAA and CTTCTGCTTACAGCCCAA are the same in remaining target (mRNA or protein) (fraction of control): 0.56 for the first, 0.56 for the second.

First: GACATAATCTGATCCTCC
Second: GCTGTCACTGTAGGAGTG
The remaining target (mRNA or protein) (fraction of control) of the first is higher: no less than 1 for the first, 0.75 for the second.

GGTAACAGAAAAGAAATT and TAATCTGGATTTCATGGC cannot be ordered by remaining target (mRNA or protein) (fraction of control): no less than 1 for the first, no less than 1 for the second.

Compared with TAGAAGAGGCACATCATG, TATTTTATGTATTATCTT is higher in remaining target (mRNA or protein) (fraction of control): 0.76 for the first, no less than 1 for the second.

TCAATACGAGACTGTAGT and TCTCCTCCAGAACAGTAT cannot be ordered by remaining target (mRNA or protein) (fraction of control): no less than 1 for the first, no less than 1 for the second.

Going from TCTCGATGTATAATTTTG to TGAGCACACGGTCCTGAC, the remaining target (mRNA or protein) (fraction of control) falls from no less than 1 to 0.79.

Compared with TGCCCAGCCGCTCCCGCA, TGTGTAAGGCTTATTCTC is higher in remaining target (mRNA or protein) (fraction of control): 0.85 for the first, 0.91 for the second.

TGTTCCAGAGATTCCATC and TTAAACTACAAAGGCTAT cannot be ordered by remaining target (mRNA or protein) (fraction of control): no less than 1 for the first, no less than 1 for the second.

Compared with TTACTGAGGGCCACTTCC, TTCAGCCCACACTTTACG is higher in remaining target (mRNA or protein) (fraction of control): 0.48 for the first, 0.58 for the second.

First: TTCCCGATGCTGGTACAG
Second: TTCTTGAGAACCAGTATT
The remaining target (mRNA or protein) (fraction of control) of the first is lower: 0.63 for the first, no less than 1 for the second.
